Measurements taken from the CheMixHub viscosity set.
Values joined by “and” are separate entries in the source; they are usually repeats but may differ in a detail not shown here. Equal values may be shown once.

Assay: xn = mol fraction of the nth substance listed

CS(C)=O + O
viscosity
Conditions	293.15 K	298.15 K
101 kPa, x1 = 0.01	1.11 mPa·s	–
101 kPa, x1 = 0.01869	–	1.01 mPa·s
101 kPa, x1 = 0.025	1.23 mPa·s	–
101 kPa, x1 = 0.039	1.38 mPa·s	–
101 kPa, x1 = 0.0406	–	1.19 mPa·s
101 kPa, x1 = 0.05	1.502 mPa·s	1.318 mPa·s
101 kPa, x1 = 0.055	1.55 mPa·s	–
101 kPa, x1 = 0.06619	–	1.44 mPa·s
101 kPa, x1 = 0.071	1.74 mPa·s	–
101 kPa, x1 = 0.09	1.97 mPa·s	–
101 kPa, x1 = 0.11	2.23 mPa·s	–
101 kPa, x1 = 0.13	2.54 mPa·s	–
101 kPa, x1 = 0.15	2.815 mPa·s	2.438 mPa·s
101 kPa, x1 = 0.16	2.9 mPa·s	–
101 kPa, x1 = 0.19	3.28 mPa·s	–
101 kPa, x1 = 0.2	–	3.156 mPa·s
101 kPa, x1 = 0.22	3.68 mPa·s	–
101 kPa, x1 = 0.25	4.042 mPa·s	3.4 mPa·s
101 kPa, x1 = 0.26	4.02 mPa·s	–
101 kPa, x1 = 0.3	4.26 mPa·s	–
101 kPa, x1 = 0.35	4.375 mPa·s and 4.4 mPa·s	3.763 mPa·s
101 kPa, x1 = 0.4	–	3.799 mPa·s
101 kPa, x1 = 0.41	4.29 mPa·s	–
101 kPa, x1 = 0.48	3.913 mPa·s and 3.97 mPa·s	3.395 mPa·s and 3.446 mPa·s
101 kPa, x1 = 0.57	3.54 mPa·s	–
101 kPa, x1 = 0.6	–	3.008 mPa·s
101 kPa, x1 = 0.67	3.08 mPa·s	–
101 kPa, x1 = 0.73	2.9 mPa·s	2.507 mPa·s
101 kPa, x1 = 0.8	–	2.375 mPa·s
101 kPa, x1 = 0.81	2.62 mPa·s	–
101 kPa, x2 = 0.047	–	2.054 mPa·s
101 kPa, x2 = 0.089	–	2.118 mPa·s
101 kPa, x2 = 0.186	–	2.298 mPa·s
101 kPa, x2 = 0.2	–	2.3 mPa·s
101 kPa, x2 = 0.3	–	2.7 mPa·s
101 kPa, x2 = 0.335	–	2.708 mPa·s
101 kPa, x2 = 0.522	–	3.449 mPa·s
101 kPa, x2 = 0.59	–	3.676 mPa·s
101 kPa, x2 = 0.651	–	3.764 mPa·s
101 kPa, x2 = 0.702	–	3.674 mPa·s
101 kPa, x2 = 0.743	–	3.467 mPa·s
101 kPa, x2 = 0.812	–	2.854 mPa·s
101 kPa, x2 = 0.867	–	2.232 mPa·s
101 kPa, x2 = 0.91	–	1.748 mPa·s
101 kPa, x2 = 0.945	–	1.382 mPa·s
101 kPa, x2 = 0.975	–	1.11 mPa·s
101.3 kPa, x1 = 0.012	1.112 mPa·s	0.986 mPa·s
101.3 kPa, x2 = 0.1906	2.569 mPa·s	2.299 mPa·s
101.3 kPa, x2 = 0.3252	2.966 mPa·s	2.63 mPa·s
101.3 kPa, x2 = 0.5203	3.891 mPa·s	3.38 mPa·s
101.3 kPa, x2 = 0.6501	4.352 mPa·s	3.727 mPa·s
101.3 kPa, x2 = 0.743	3.998 mPa·s	3.414 mPa·s
101.3 kPa, x2 = 0.8183	3.231 mPa·s	2.773 mPa·s
101.3 kPa, x2 = 0.8668	2.57 mPa·s	–
101.3 kPa, x2 = 0.9101	2.008 mPa·s	1.747 mPa·s
101.3 kPa, x2 = 0.9455	1.575 mPa·s	1.383 mPa·s
101.3 kPa, x2 = 0.9751	1.247 mPa·s	1.101 mPa·s
101.33 kPa, x1 = 0.00588	1.053 mPa·s	–
101.33 kPa, x1 = 0.012	1.112 mPa·s	–
101.33 kPa, x1 = 0.02498	1.264 mPa·s	–
101.33 kPa, x1 = 0.03901	1.402 mPa·s	–
101.33 kPa, x1 = 0.04864	1.515 mPa·s	–
101.33 kPa, x1 = 0.0545	1.559 mPa·s	–
101.33 kPa, x1 = 0.08993	2.009 mPa·s	–
101.33 kPa, x1 = 0.1332	2.589 mPa·s	–
101.33 kPa, x1 = 0.1469	2.743 mPa·s	–
101.33 kPa, x1 = 0.1874	3.319 mPa·s	–
101.33 kPa, x1 = 0.2998	4.296 mPa·s	–
101.33 kPa, x1 = 0.3498	4.385 mPa·s	–
101.33 kPa, x1 = 0.4498	4.091 mPa·s	–
101.33 kPa, x1 = 0.5665	3.498 mPa·s	–
101.33 kPa, x1 = 0.651	3.211 mPa·s	–
101.33 kPa, x1 = 0.7539	2.743 mPa·s	–
101.33 kPa, x1 = 0.847	2.514 mPa·s	–
101.33 kPa, x2 = 0.2097	–	2.291 mPa·s
101.33 kPa, x2 = 0.3132	–	2.568 mPa·s
101.33 kPa, x2 = 0.409	–	2.909 mPa·s
101.33 kPa, x2 = 0.503	–	3.197 mPa·s
101.33 kPa, x2 = 0.7032	–	3.569 mPa·s
101.33 kPa, x2 = 0.8053	–	2.858 mPa·s
101.33 kPa, x2 = 0.9021	–	1.787 mPa·s
